Experimental data reported in PubChem BioAssay AID270 (DTP/NCI, 2004).
Several values for one entry are separate records, joined by “and”; a condition that tells them apart may be missing. Equal values may be shown once. Records with an inconclusive call do not appear. *1 amine or outer side, *2 acyl side, *3 side chain or, on linkers, in order; H or OH if unused. Where a SMILES comes first, the peptide text is derived from it. Bridges are numbered along the chain shown (N, C = ends). Roman numbers before positions name the chains, in order. [ ]: non-standard residue; d: D form. Actinocin(9to1) = Cc1c2oc3c(C)ccc(C(=O)[*:1])c3nc-2c(C(=O)[*:2])c(N)c1=O; aThr = C[C@H](O)[C@H](N)C(=O)O; NMeV = CN[C@H](C(=O)O)C(C)C; Sar = CNCC(=O)O

Tested on: BDF1 mice, s.c. Lewis lung carcinoma, T/C %
Test: NCI In Vivo Anticancer Drug Screen. Data for tumor model Lewis Lung Carcinoma (subcutaneous) in B6D2F1 (BDF1) mice
Method in brief: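 The value reflects a ratio in which the treated cohort's survival time or tumour size is compared against mice receiving only vehicle.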

## Cc1c2oc3c(C)ccc(C(=O)N[C@@H]4C(=O)N[C@H](C(C)C)C(=O)N5CCC[C@H]5C(=O)N(C)CC(=O)N(C)[C@@H](C(C)C)C(=O)O[C@H]4C)c3nc-2c(C(=O)N[C@@H]2C(=O)N[C@H](C(C)C)C(=O)N3CCC[C@H]3C(=O)N(C)CC(=O)N(C)[C@@H](C(C)C)C(=O)O[C@H]2C)c(N)c1=O (I: [aThr][dV]P[Sar][NMeV] / II: [aThr][dV]P[Sar][NMeV]; ester I:1-I:C, II:1-II:C; linker I:N-II:N via Actinocin(9to1))
endpoint: mean tumor weight, dose: 0.03 mg/kg/injection, schedule: Q01DX011 (ip), vehicle: saline, higher = larger tumour
  T/C: 89 % of control
endpoint: mean tumor weight, dose: 0.05 mg/kg/injection, schedule: Q01DX011 (ip), vehicle: saline, higher = larger tumour
  T/C: 55 % of control
endpoint: mean tumor weight, dose: 12.0 micrograms/kg/injection, schedule: Q01DX011 (ip), vehicle: other, higher = larger tumour
  T/C: 122 % of control
endpoint: mean tumor weight, dose: 25.0 micrograms/kg/injection, schedule: Q01DX011 (ip), vehicle: other, higher = larger tumour
  T/C: 95 % of control and 98 % of control
endpoint: mean tumor weight, dose: 50.0 micrograms/kg/injection, schedule: Q01DX011 (ip), vehicle: other, higher = larger tumour
  T/C: 42 % of control and 49 % of control
endpoint: median survival time, dose: 12.5 micrograms/kg/injection, schedule: Q01DX009 (ip), vehicle: saline, higher = longer survival
  T/C: 98 % of control and 122 % of control
endpoint: median survival time, dose: 12.5 micrograms/kg/injection, schedule: Q01DX009 (ip), vehicle: water, higher = longer survival
  T/C: 112 % of control
endpoint: median survival time, dose: 13.0 micrograms/kg/injection, schedule: Q01DX009 (ip), vehicle: saline, higher = longer survival
  T/C: 116 % of control
endpoint: median survival time, dose: 25.0 micrograms/kg/injection, schedule: Q01DX009 (ip), vehicle: water, higher = longer survival
  T/C: 120 % of control
endpoint: median survival time, dose: 50.0 micrograms/kg/injection, schedule: Q01DX009 (ip), vehicle: water, higher = longer survival
  T/C: 102 % of control
endpoint: median survival time, dose: 75.0 micrograms/kg/injection, schedule: Q04DX003 (ip), vehicle: water, higher = longer survival
  T/C: 153 % of control
endpoint: median survival time, dose: 150.0 micrograms/kg/injection, schedule: Q04DX003 (ip), vehicle: water, higher = longer survival
  T/C: 105 % of control
endpoint: median tumor weight (est.), dose: 12.0 micrograms/kg/injection, schedule: Q01DX009 (ip), vehicle: saline, higher = larger tumour
  T/C: 88 % of control
endpoint: median tumor weight (est.), dose: 25.0 micrograms/kg/injection, schedule: Q01DX009 (ip), vehicle: saline, higher = larger tumour
  T/C: 98 % of control
endpoint: median tumor weight (est.), dose: 50.0 micrograms/kg/injection, schedule: Q01DX009 (ip), vehicle: saline, higher = larger tumour
  T/C: 70 % of control
endpoint: median tumor weight (est.), dose: 100.0 micrograms/kg/injection, schedule: Q01DX009 (ip), vehicle: saline, higher = larger tumour
  T/C: 51 % of control

## COc1ccc2cc3[n+](cc2c1OC)CCc1cc2c(cc1-3)OCO2
endpoint: mean tumor weight, dose: 12.0 mg/kg/injection, schedule: Q01DX011 (ip), vehicle: saline, higher = larger tumour
  T/C: 96 % of control
endpoint: median survival time, dose: 0.12 mg/kg/injection, schedule: Q01DX009 (ip), vehicle: Klucel (hydroxypropylcellulose) (HPC), higher = longer survival
  T/C: 102 % of control
endpoint: median survival time, dose: 0.25 mg/kg/injection, schedule: Q01DX009 (ip), vehicle: Klucel (hydroxypropylcellulose) (HPC), higher = longer survival
  T/C: 107 % of control
endpoint: median survival time, dose: 0.5 mg/kg/injection, schedule: Q01DX009 (ip), vehicle: Klucel (hydroxypropylcellulose) (HPC), higher = longer survival
  T/C: 112 % of control
endpoint: median survival time, dose: 1.0 mg/kg/injection, schedule: Q01DX009 (ip), vehicle: Klucel (hydroxypropylcellulose) (HPC), higher = longer survival
  T/C: 110 % of control
endpoint: median survival time, dose: 2.0 mg/kg/injection, schedule: Q01DX009 (ip), vehicle: Klucel (hydroxypropylcellulose) (HPC), higher = longer survival
  T/C: 95 % of control
endpoint: median survival time, dose: 4.0 mg/kg/injection, schedule: Q01DX009 (ip), vehicle: Klucel (hydroxypropylcellulose) (HPC), higher = longer survival
  T/C: 100 % of control
endpoint: median survival time, dose: 8.0 mg/kg/injection, schedule: Q01DX009 (ip), vehicle: Klucel (hydroxypropylcellulose) (HPC), higher = longer survival
  T/C: 92 % of control

## COc1ccc(CN(CCOC(=O)c2ccc(OC)cc2)CCN(CCOC(=O)c2ccc(OC)cc2)Cc2ccc(OC)cc2)cc1
endpoint: median survival time, dose: 25.0 mg/kg/injection, schedule: Q01DX009 (ip), vehicle: other, higher = longer survival
  T/C: 100 % of control
endpoint: median survival time, dose: 50.0 mg/kg/injection, schedule: Q01DX009 (ip), vehicle: other, higher = longer survival
  T/C: 98 % of control
endpoint: median survival time, dose: 100.0 mg/kg/injection, schedule: Q01DX009 (ip), vehicle: other, higher = longer survival
  T/C: 93 % of control
endpoint: median survival time, dose: 200.0 mg/kg/injection, schedule: Q01DX009 (ip), vehicle: other, higher = longer survival
  T/C: 100 % of control
